Measurements from patent US20150037285A1, “METHODS FOR EFFICIENT TRANSFER OF VIABLE AND BIOACTIVE MICROBIOTA” (NEW YORK UNIVERSITY, priority 2013, published 2015).

Test system: C57BL/6J mice
Assay: Sub-therapeutic antibiotic treatment (STAT) in drinking water, body composition versus Control drinking water
Format: in vivo
Settings: STAT penicillin versus Control drinking water
Text: C57BL/6J (Jackson Labs, Bar Harbor Me.) mice either received no antibiotics (control) or continuous subtherapeutic antibiotic treatment (STAT) with penicillin in their drinking water. Mice were weaned at 4 weeks onto normal chow (13.2% fat, 5053 PicoLab Rodent Diet 20, LabDiet, Brentwood, Mo.) then changed to a high fat diet (45% kcal from fat, D12451, Research Diets, New Brunswick, N.J.) at 6 weeks of life. At 18 weeks of age, the three animals with weight at or closest to the median were selected as cecal content donors from each group (Control, n=7; STAT, n=8). Donor mice were humanely euthanized, and the proximal ⅓ of the cecum was aseptically removed and immediately (less than 1 minute) placed in reduced (no oxygen), sterile liquid dental transport media (Anaerobe Systems, Morgan Hill Calif.). The cecal samples in anaerobic transport media were brought into an anaerobic chamber within an hour of collection (Sheldon, Cornelius Oreg.). The three cecal samples from each group (STAT or Control) were pooled, and reduced, sterile saline was added to a final volume of 8 mL, of which 3 mL was used for microbiota transfer. To maintain viability of anaerobic organisms, vials containing the inoculum were not opened. […]
Mice were fed normal chow, then switched to high fat diet at 6 weeks of age. […] Microbiota recipient mice were given a high fat diet and monitored for 5 weeks. […]

penicillin
Body composition: changes in body composition
